According to the RepoRT retention time repository (doi:10.1016/j.scitotenv.2015.08.078):

Assay: RP, Waters ACQUITY UPLC BEH C18, 100 × 2.1 mm, 1.7 µm, 0.3 mL/min, estimated dead time 0.73 min; A: water + 0.1% formic acid, pH 3; B: methanol + 0.1% formic acid, pH 3; gradient (min/%B) 0/10 14/90 16/90 18/10
Conditions: stereoisomer not certain

| SMILES | LC retention time [min] |
| --- | --- |
| COP(=O)(OC)OC1=C(Cl)C2C=CCC12 (configuration not stated) [Heptenophos] | 9.33 |
| COc1nc(C)nc(NC(=O)NS(=O)(=O)c2ccccc2Cl)n1 [Chlorsulfuron] | 7.94 |
| CC(C)(C)NCC(O)c1cc(Br)c(N)c(Br)c1 (configuration not stated) [Brombuterol] | 5.9 |
| CCCCC(CC)COC(=O)c1ccccc1C(=O)OCC(CC)CCCC (configuration not stated) [Bis-(2-ethylhexyl) phthalate] | 15.3 |
| CON=C1CC2(CC3CC(CC=C(C)CC(C)C=CC=C4COC5C(O)C(C)=CC(C(=O)O3)C45O)O2)OC(C(C)=CC(C)C)C1C (configuration not stated) [Moxidectin] | 15.8 |
| CCN1CCN(c2cc3c(cc2F)c(=O)c(C(=O)O)cn3C2CC2)CC1 [Enrofloxacin] | 4.58 |
| Nc1ccc(S(=O)(=O)c2ccc(N)cc2)cc1 [Dapsone] | 3.17 |
| CCOc1ccccc1OS(=O)(=O)NC(=O)Nc1nc(OC)cc(OC)n1 [Ethoxysulfuron] | 8.41 |
| CC(C)Nc1nc(Cl)nc(NC(C)C)n1 [Propazine] | 9.88 |
| CN(Cc1cc(Br)cc(Br)c1N)C1CCCCC1 [Bromhexine] | 14.1 |
| Clc1ccc(C2(Cn3cncn3)OCCO2)c(Cl)c1 [Azaconazole] | 9.01 |
| CCOC1Oc2ccc(OS(C)(=O)=O)cc2C1(C)C (configuration not stated) [Ethofumesate] | 9.89 |
| CCCOC(=O)NCCCN(C)C [Propamocarb] | 2.28 |
| O=C(NC(=O)c1c(F)cccc1F)Nc1ccc(OC(F)(F)C(F)OC(F)(F)F)c(Cl)c1 (configuration not stated) [Novaluron] | 12.6 |
| COC(=O)C1C(OC(=O)c2ccccc2)CC2CCC1N2C (configuration not stated) [Cocaine] | 5.49 |
| O=C(CCCN1CCN(c2ccccn2)CC1)c1ccc(F)cc1 [Azaperone] | 5.63 |
| CON=C(Cc1cccnc1)c1ccc(Cl)cc1Cl (single isomer, unassigned; isomer 1) [Pyrifenox ISOMER 1] | 10.2 |
| CC12CCC(O)CC1=CCC1C2CCC2(C)C(O)CCC12 (configuration not stated) [Androstenediol (AED)] | 12.9 |
| Cc1cc(C)nc(NC(=O)NS(=O)(=O)c2ccccc2C(=O)OC2COC2)n1 [Oxasulfuron] | 6.3 |
| CC(C)N1C(=O)c2ccccc2NS1(=O)=O [Bentazon] | 3.68 |
| COc1c(N2CC3CCCNC3C2)c(F)cc2c(=O)c(C(=O)O)cn(C3CC3)c12 (configuration not stated) [Moxifloxacin] | 5.23 |
| CCC1OC(=O)C(C)C(OC2CC(C)(OC)C(O)C(C)O2)C(C)C(OC2OC(C)CC(N(C)C)C2O)C(C)(O)CC(C)C(=NOCOCCOC)C(C)C(O)C1(C)O (configuration not stated) [Roxithromycin] | 10.7 |

| SMILES | LC retention time [min] |
| --- | --- |
| CCS(=O)Cc1ccccc1OC(=O)NC (configuration not stated) [Ethiofencarb sulfoxide] | 4.6 |
| CC(Oc1ccc(Oc2nc3ccc(Cl)cc3o2)cc1)C(=O)O (configuration not stated) [Fenoxaprop] | 11.6 |
| CCNc1nc(NC(C)C(C)C)nc(SC)n1 (configuration not stated) [Dimethametryn] | 11.4 |
| CC(C)N(C(=O)SCC(Cl)=C(Cl)Cl)C(C)C [Tri-allate] | 13.3 |
| COc1cc(OC)nc(NC(=O)NS(=O)(=O)c2ncccc2C(=O)N(C)C)n1 [Nicosulfuron] | 5.39 |
| COc1cc(OC)n2nc(S(=O)(=O)Nc3c(Cl)ccc(C)c3Cl)nc2n1 [Metosulam] | 7.54 |
| CC1CC2C3CC(F)C4=CC(=O)C=CC4(C)C3(F)C(O)CC2(C)C1(O)C(=O)CO (configuration not stated) [Flumethasone] | 9.72 |
| CCNC(C)Cc1ccc2c(c1)OCO2 (configuration not stated) [MDEA] | 4.27 |
| COC(=O)c1ccccc1S(=O)(=O)NC(=O)N(C)c1nc(C)nc(OC)n1 [Tribenuron methyl] | 7.52 |
| CC(C)(C)C(O)C(Oc1ccc(-c2ccccc2)cc1)n1cncn1 (configuration not stated) [Bitertanol] | 12 |
| COC(=O)NC(=S)Nc1ccccc1NC(=S)NC(=O)OC [Thiophanate-methyl] | 7.2 |
| COP(=S)(OC)Oc1ccc([N+](=O)[O-])c(C)c1 [Fenitrothion] | 10.5 |
| CC(C)NCC(O)COc1ccc(CC(N)=O)cc1 (configuration not stated) [Atenolol] | 8.74 |
| O=C(Nc1ccccc1)Nc1ccnc(Cl)c1 [Forchlorfenuron] | 8.95 |
| CCC1CCCC(OC2CCC(N(C)C)C(C)O2)C(C)C(=O)C2=CC3C(C=C(C)C4CC(OC5OC(C)C(OC)C(OC)C5OC)CC43)C2CC(=O)O1 (configuration not stated) [Spinosyn D] | 12.5 |
| CNc1cnn(-c2cccc(C(F)(F)F)c2)c(=O)c1Cl [Norflurazon] | 9.22 |
| CC12CCC(=O)C=C1CCC1C2C(O)CC2(C)C(C(=O)CO)CCC12 (configuration not stated) [Corticosterone] | 9.37 |
| CNC(=O)Oc1cccc2ccccc12 [Carbaryl] | 7.91 |
| CCOc1ccc(C(C)(C)COCc2cccc(Oc3ccccc3)c2)cc1 [Ethofenprox] | 15.1 |
| CCS(=O)(=O)Cc1ccccc1OC(=O)NC [Ethiofencarb sulfone] | 4.07 |
| CC12Cc3cn[nH]c3CC1CCC1C2CCC2(C)C1CCC2(C)O (configuration not stated) [Stanozolol] | 12 |
| COP(=O)(OC)Oc1ccc(SC)c(C)c1 [Fenthion oxon] | 9.48 |

| SMILES | LC retention time [min] |
| --- | --- |
| CCC(C)(CC)c1cc(NC(=O)c2c(OC)cccc2OC)on1 [Isoxaben] | 10.4 |
| CCOP(=S)(OCC)SCSP(=S)(OCC)OCC [Ethion] | 13.4 |
| CC1(C)CON(Cc2ccccc2Cl)C1=O [Clomazone] | 9.54 |
| CCC(C)(C)NCC(O)c1cc(Cl)c(N)c(Cl)c1 (configuration not stated) [Clenpenterol] | 6.19 |
| CCN(CC)C(=O)N1CCN(C)CC1 [Diethylcarbamazine] | 2.52 |
| CCCSP(=O)(OCC)SCCC [Ethoprophos] | 11.1 |
| CCSCCSP(=O)(OC)OC [Demeton-S-methyl] | 7.56 |
| O=C1Nc2ccc(Cl)cc2C(c2ccccc2Cl)=NC1O (configuration not stated) [Lorazepam] | 9.87 |
| CC1(C)CCC(=Cc2ccc(Cl)cc2)C1(O)Cn1cncn1 (configuration not stated) [Triticonazole] | 11 |
| CCCOCCN(C(=O)CCl)c1c(CC)cccc1CC [Pretilachlor] | 12.5 |
| CON(C)C(=O)Nc1ccc(Br)cc1 [Metobromuron] | 8.53 |
| CCNc1nc(N)nc(Cl)n1 [Desisopropylatrazine] | 4.38 |
| CCOP(=S)(OCC)Oc1ccc(Cl)cc1Cl [Dichlofenthion] | 13.4 |
| CN(C)C1C(=O)C(C(N)=O)=C(O)C2(O)C(=O)C3=C(O)c4c(O)cccc4C(C)(O)C3C(O)C12 (configuration not stated) [Oxytetracycline] | 3.94 |
| CC(C)=NOCCOC(=O)C(C)Oc1ccc(Oc2cnc3cc(Cl)ccc3n2)cc1 (configuration not stated) [Propaquizafop] | 12.9 |
| CNC(=O)ON=C(SC)C(=O)N(C)C [Oxamyl] | 2.84 |
| CCOP(=S)(OCC)ON=C(C#N)c1ccccc1 [Phoxim] | 11.9 |
| CC1CCCC(=O)CCCC=Cc2cc(O)cc(O)c2C(=O)O1 (configuration not stated) [Zearalenone] | 10.5 |
| CCCCOC(=O)N(C)SN(C)C(=O)Oc1cccc2c1OC(C)(C)C2 [Furathiocarb] | 12.8 |
| COCC(=O)N(c1c(C)cccc1C)C(C)C(=O)OC (configuration not stated) [Metalaxyl] | 9.73 |
| O=C(NC(CO)C(O)c1ccc([N+](=O)[O-])cc1)C(Cl)Cl (configuration not stated) [Chloramphenicol] | 5.3 |
| CCCCC(CC)COC(=O)CCCCC(=O)OCC(CC)CCCC (configuration not stated) [Bis-(2-ethylhexyl) adipate] | 15.3 |

| SMILES | LC retention time [min] |
| --- | --- |
| COc1ccc(-c2ccccc2)cc1NNC(=O)OC(C)C [Bifenazate] | 10.8 |
| N#Cc1nn(-c2c(Cl)cc(C(F)(F)F)cc2Cl)c(N)c1S(=O)C(F)(F)F (configuration not stated) [Fipronil] | 11.3 |
| COP(=S)(OC)SCC(=O)N(c1ccc(Cl)cc1)C(C)C [Anilofos] | 11.7 |
| CC1(C)SC2C(NC(=O)C(N)c3ccccc3)C(=O)N2C1C(=O)O (configuration not stated) [Ampicillin] | 4.95 |
| CC(C)NC(=O)N1CC(=O)N(c2cc(Cl)cc(Cl)c2)C1=O [Iprodione] | 11.9 |
| CCC(C(=O)O)C1CCC(C)C(C(C)C(O)C(C)C(=O)C(CC)C2OC3(C=CC(O)C4(CCC(C)(C5CCC(O)(CC)C(C)O5)O4)O3)C(C)CC2C)O1 (configuration not stated) [Salinomycin] | 15.9 |
| CN=C(NC#N)NCCSCc1nc[nH]c1C [Cimetidine] | 2.28 |
| CCC1OC(=O)C(C)C(OC2CC(C)(OC)C(O)C(C)O2)C(C)C(OC2OC(C)CC(N(C)C)C2O)C(C)(OC)CC(C)C(=O)C(C)C(O)C1(C)O (configuration not stated) [Clarithromycin] | 10.5 |
| CC(C)c1ccc(NC(=O)N(C)C)cc1 [Isoproturon] | 9.6 |
| CCNP(=S)(OC)OC(C)=CC(=O)OC(C)C (configuration not stated) [Propetamphos] | 10.6 |
| CCSCc1ccccc1OC(=O)NC [Ethiofencarb] | 8.89 |
| CCOC(=O)CC(SP(=S)(OC)OC)C(=O)OCC (configuration not stated) [Malathion] | 11.6 |
| CCOP(=O)(Sc1ccccc1)Sc1ccccc1 [Edifenphos] | 11.7 |
| CNc1nc(NC(C)C)nc(SC)n1 [Desmetryn] | 8.78 |
| CC(C)=CC1C(C(=O)OCc2coc(Cc3ccccc3)c2)C1(C)C (configuration not stated) [Bioresmethrin] | 14.2 |
| Cc1cc(C2CC2)nc(Nc2ccccc2)n1 [Cyprodinil] | 10.7 |
| COc1cc2c(c3oc(=O)c4c(c13)CCOC4=O)C1CCOC1O2 (configuration not stated) [Aflatoxin G2] | 6.71 |
| O=c1[nH]c2c(c(=O)n1C1CCCCC1)CCC2 [Lenacil] | 8.9 |
| CC(C)(SC(=O)N1CCCCC1)c1ccccc1 [Dimepiperate] | 12.3 |
| CCOP(=S)(OCC)Oc1cc(C)nc(N(CC)CC)n1 [Pirimiphos-ethyl] | 13 |
| CCNc1nc(NC(C)C)nc(SC)n1 [Ametryn] | 9.9 |
